Molecular target: CB1 receptors (Rattus norvegicus, UniProt P20272)
Assay: Inhibition of [3H]SR141716 binding in homogenates of rat cerebellum
Settings: [3H]SR141716 radioligand

CB1 receptors, sequence (P20272 whole entry): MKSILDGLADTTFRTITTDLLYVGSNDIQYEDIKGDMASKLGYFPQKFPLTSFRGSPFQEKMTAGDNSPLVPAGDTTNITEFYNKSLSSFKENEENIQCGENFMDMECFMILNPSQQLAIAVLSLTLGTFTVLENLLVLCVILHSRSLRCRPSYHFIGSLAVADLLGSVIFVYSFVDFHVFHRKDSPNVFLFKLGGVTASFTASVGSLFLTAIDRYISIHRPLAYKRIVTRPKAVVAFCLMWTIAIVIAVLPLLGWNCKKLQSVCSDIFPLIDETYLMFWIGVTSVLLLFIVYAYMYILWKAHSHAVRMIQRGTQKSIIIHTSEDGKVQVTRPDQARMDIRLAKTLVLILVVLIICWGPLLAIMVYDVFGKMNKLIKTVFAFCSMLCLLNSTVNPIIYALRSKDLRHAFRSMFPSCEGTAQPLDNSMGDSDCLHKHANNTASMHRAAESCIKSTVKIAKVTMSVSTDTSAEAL

| SMILES | binding affinity at CB1 receptors (in words) |
| --- | --- |
| O=C(OCc1ccccc1)c1nnn(-c2ccc(Cl)cc2Cl)c1-c1ccc(Cl)cc1 [Compound 15] | somewhat diminished |
| O=C(NN1CCCCC1)c1nnn(-c2ccc(Cl)cc2)c1-c1ccc(Cl)cc1 [Compound 9] | low affinity |
| Clc1ccc(-c2cnnn2-c2ccc(Cl)cc2)cc1 [Compound 7a] | low affinity |
| Clc1ccc(-c2cnnn2-c2ccc(Cl)cc2Cl)cc1 [Compound 7b] | low affinity |

Reference: paper PMC2631625 (Bioorganic & medicinal chemistry letters, 2008)
